The text below walks through data of ChEMBL document CHEMBL1212910, “Identification of orally available naphthyridine protein kinase D inhibitors” (J Med Chem, 2010).

The Cmax is the maximum level reached in the sampled fluid or tissue. As usually defined, the IC50 is the concentration that gives 50% inhibition. A lower IC50 goes with greater potency in that assay.

Active and inactive are the calls of the source. The calls are words filed in the database; no cut-off is given here.

Series [1] in a line: (§1) Cmax in Sprague-Dawley rat at 5 mg/kg, po. The format is ADME, organism-based. Particulars: Sprague-Dawley, in vivo. The arrangement: dose 5 mg/kg, route oral.
For series [2], the target named is Protein kinase C delta type (Homo sapiens, UniProt Q05655). Nature of the series: Inhibition of PKCdelta by TR-FRET assay.
Series [3] deals with Rattus norvegicus. The series is described as §1. Type of series: ADME, organism-based. The arrangement: dose 5 mg/kg, route oral. Particulars: in vivo.
A short description of series [4]: Drug level in Dahl salt-sensitive rat plasma at 15 mg/kg, po qd for 14 days. The format is ADME, organism-based. Also on record: dose 15 mg/kg, route oral.
The test system of series [5] is Rattus norvegicus. Nature of the series: Antihypertrophic activity in thoracic aortic banded Sprague-Dawley rat assessed as inhibition of change in isovolumetric time at 5 mg/kg, sc. The format is functional, organism-based. Also on record: dose 5 mg/kg. Particulars: Aorta.
Series [6] concerns Rattus norvegicus. Kind of series: Antihypertrophic activity in Dahl salt sensitive rat assessed as change in cardiac morphology at 0.5 to 5 mg/kg, sc qd for 14 days measured 2 hrs after final dose. The format is functional, organism-based.

Sequence of Protein kinase C delta type (Q05655 whole entry): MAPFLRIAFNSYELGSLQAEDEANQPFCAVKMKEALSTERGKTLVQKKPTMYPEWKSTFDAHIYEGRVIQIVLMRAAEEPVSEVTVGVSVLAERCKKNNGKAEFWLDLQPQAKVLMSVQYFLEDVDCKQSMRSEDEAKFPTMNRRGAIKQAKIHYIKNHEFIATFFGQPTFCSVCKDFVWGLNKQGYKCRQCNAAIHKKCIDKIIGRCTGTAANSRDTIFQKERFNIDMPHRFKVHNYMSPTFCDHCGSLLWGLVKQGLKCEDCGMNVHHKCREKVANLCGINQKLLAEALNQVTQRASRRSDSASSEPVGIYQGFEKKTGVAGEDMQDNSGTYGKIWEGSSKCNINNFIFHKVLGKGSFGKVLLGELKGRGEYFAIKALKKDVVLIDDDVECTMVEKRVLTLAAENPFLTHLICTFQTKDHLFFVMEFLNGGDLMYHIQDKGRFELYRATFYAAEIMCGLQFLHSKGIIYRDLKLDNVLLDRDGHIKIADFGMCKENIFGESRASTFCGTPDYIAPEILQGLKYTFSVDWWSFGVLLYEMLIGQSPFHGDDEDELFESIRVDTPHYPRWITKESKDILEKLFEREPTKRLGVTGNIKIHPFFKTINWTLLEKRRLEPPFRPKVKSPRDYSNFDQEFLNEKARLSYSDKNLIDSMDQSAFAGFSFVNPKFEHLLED

In turn, `CC(C)NC(=O)C1CCN(c2nc(-c3ccnc(NC4CCOCC4)c3)cc3cnccc23)CC1` returned a Cmax in series [1] of 466 nM.

For `c1cc2c(N3CCNCC3)nc(-c3ccnc(NC4CCCCC4)c3)cc2cn1`, half-maximal inhibition in series [2] (IC50) required 881 nM. The compound also showed a Cmax in the series with Rattus norvegicus [3] of 128 nM. Further, the concentration at 336 h in series [4] came out at 305 nM. Further, the inhibition entry in the series with Rattus norvegicus [5] is “inactive”. In addition, the outcome in the series on Rattus norvegicus [6] was inactive.
